Test system: E. coli, Streptococcus sp. and Proteus sp. isolated from the xenic culture
Assay: Antibiotic susceptibility tests (antibiotic discs) with bacterial strains isolated from the xenic culture
Conditions: strains isolated from original xenic culture (E. coli, Streptococcus sp., Proteus sp.)

Compound | susceptibility tests of the bacterial strains
neomycin | resistant to most antibiotics, except meropenem, neomycin and rifampicin
C[C@@H](O)[C@H]1C(=O)N2C(C(=O)O)=C(S[C@@H]3CN[C@H](C(=O)N(C)C)C3)[C@H](C)[C@H]12 [meropenem] | resistant to most antibiotics, except meropenem, neomycin and rifampicin

— patent publication US10350281B2 (priority 2012, dated 2019)
